Test results reported in ChEMBL document CHEMBL1132893, “The design and synthesis of potent cyclic peptide VCAM-VLA-4 antagonists incorporating an achiral Asp-Pro mimetic” (Bioorg Med Chem Lett, 2000).

Assays:
Integrin alpha-4 [1] = biological target: T1, Integrin alpha-4 (Homo sapiens, UniProt P13612); assay: Inhibition of VLA-4 binding to recombinant human VCAM using Solid phase assay
T1 sequence (P13612 whole entry): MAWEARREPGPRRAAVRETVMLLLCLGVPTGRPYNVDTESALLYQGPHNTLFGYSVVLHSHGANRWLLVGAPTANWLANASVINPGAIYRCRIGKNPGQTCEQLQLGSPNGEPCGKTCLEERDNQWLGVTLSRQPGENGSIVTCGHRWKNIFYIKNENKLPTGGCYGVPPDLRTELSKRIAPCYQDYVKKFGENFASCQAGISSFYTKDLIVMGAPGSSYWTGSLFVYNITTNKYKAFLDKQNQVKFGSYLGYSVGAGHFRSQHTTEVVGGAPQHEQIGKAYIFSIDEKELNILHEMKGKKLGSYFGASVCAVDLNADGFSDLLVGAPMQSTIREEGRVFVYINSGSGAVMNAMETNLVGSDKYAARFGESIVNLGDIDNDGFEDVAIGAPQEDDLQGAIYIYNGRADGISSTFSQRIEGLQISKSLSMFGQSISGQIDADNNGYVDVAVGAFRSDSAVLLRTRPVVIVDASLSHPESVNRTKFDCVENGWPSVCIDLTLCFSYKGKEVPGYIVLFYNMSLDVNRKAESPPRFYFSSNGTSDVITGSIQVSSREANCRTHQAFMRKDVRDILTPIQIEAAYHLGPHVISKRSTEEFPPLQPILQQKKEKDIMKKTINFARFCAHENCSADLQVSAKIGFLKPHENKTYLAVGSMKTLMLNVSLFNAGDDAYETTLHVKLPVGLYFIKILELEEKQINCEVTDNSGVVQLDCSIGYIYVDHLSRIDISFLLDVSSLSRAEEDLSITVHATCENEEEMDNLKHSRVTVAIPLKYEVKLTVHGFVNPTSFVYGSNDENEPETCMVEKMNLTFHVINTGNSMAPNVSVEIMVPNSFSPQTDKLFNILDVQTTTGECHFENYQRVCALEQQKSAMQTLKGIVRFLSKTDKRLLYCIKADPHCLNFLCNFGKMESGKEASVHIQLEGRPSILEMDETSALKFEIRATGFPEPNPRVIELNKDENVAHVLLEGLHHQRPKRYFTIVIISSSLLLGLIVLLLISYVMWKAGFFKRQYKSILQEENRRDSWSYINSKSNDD

Integrin alpha-4 [2] = biological target: T1, Integrin alpha-4; assay: Inhibition of VLA-4 binding to recombinant human VCAM using Ramos cell assay; format: cell-based

SMILES | IC50 (Integrin alpha-4 [1]) [nM] | IC50 (Integrin alpha-4 [2]) [nM]
CC1(C)CCNC(=O)[C@@H](NC(=O)[C@@H](N)Cc2ccc(O)cc2)CSSC[C@@H](C(=O)O)NC1=O | 112 | 
CCC1(CC)CCNC(=O)[C@@H](NC(=O)[C@@H](N)Cc2ccc(O)cc2)CSSC[C@@H](C(=O)O)NC1=O | 3.9 | 
N[C@@H](Cc1ccc(O)cc1)C(=O)N[C@H]1CSSC[C@@H](C(=O)O)NC(=O)C2(CCCC2)CNC1=O | 5 | 
N[C@@H](Cc1ccc(O)cc1)C(=O)N[C@H]1CSSC[C@@H](C(=O)O)NC(=O)C2(CCCC2)CCNC1=O |  | 24
N[C@@H](Cc1ccc(O)cc1)C(=O)N[C@H]1CSSC[C@@H](C(=O)O)NC(=O)C2(CCCC2)CCCNC1=O | 19 | 480
CC(=O)N[C@@H](Cc1ccc(O)cc1)C(=O)N[C@H]1CSSC[C@@H](C(=O)O)NC(=O)C2(CCCC2)CCNC1=O | 0.7 | 12
